A word on the TGI: it is the concentration at which net growth stops. Low values mean more potent growth arrest, high ones less potent growth arrest. In general, GI50 refers to the concentration at which growth is held to half of that of the control.

Each structure is given as a SMILES string. Where “and” joins values, the source holds several entries; their conditions need not be identical. Equal entries are not always repeated.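 Exposure lasted 48 hours, with cells grown in 96-well plates and compounds tested at five concentrations. GI50 = concentration required for 50% inhibition of growth. The concentration for full growth arrest is given as TGI.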

The text below walks through data of PubChem BioAssay (NCI).

Test systems include NCI-H460 lung; IGROV1 ovarian; MALME-3M melanoma; SF-539 CNS; A549 NSCLC; MOLT-4 leukemia; SK-OV-3 ovarian; HCC-2998 colon; OVCAR-5 ovarian; CAKI-1 renal.
What all share (assay): DTP human tumour cell line panel, 48 h

As for `CS/C(c1ccccc1)=[N+](\[O-])Cc1ccccc1`, the total growth inhibition concentration (TGI) with NCI-H460 lung, in the experiment on IGROV1 ovarian, in the experiment with MALME-3M melanoma, with SF-539 CNS, with A549 NSCLC and with MOLT-4 leukemia was above 100 µM each time. Also, the concentration for total growth inhibition (TGI) in the experiment on SK-OV-3 ovarian, in the experiment with HCC-2998 colon, in the experiment on OVCAR-5 ovarian and in the experiment with CAKI-1 renal was above 100 µM in each case.

Consider `OCC(O)C(O)C(O)c1nn(-c2ccccc2)c2nc3cc(Cl)c(Cl)cc3nc12` (centres undefined), for which the TGI was above 100 µM in the experiment on NCI-H460 lung; above 100 µM with IGROV1 ovarian; 77.7 µM in the experiment with MALME-3M melanoma; 38.5 µM in the experiment on SF-539 CNS; above 100 µM in the experiment on A549 NSCLC; 87.6 µM in the experiment on MOLT-4 leukemia. For the same compound, the TGI in the experiment with SK-OV-3 ovarian is above 100 µM; in the experiment with HCC-2998 colon, 98.4 µM; with OVCAR-5 ovarian, 83.6 µM; in the experiment on CAKI-1 renal it was 56.7 µM.

As to `CN1C[C@@H]2Cn3c(c(C4=C(c5cn(C)c6ccccc56)C(=O)NC4=O)c4ccccc43)C[C@H]2C1`, the GI50 in the experiment on NCI-H460 lung was 4.61 µM and 4.35 µM; in the experiment on IGROV1 ovarian, 5.73 µM and 6.57 µM; with MALME-3M melanoma, 3.78 µM and 3.89 µM; in the experiment with SF-539 CNS, 3.97 µM and 3.57 µM; in the experiment with A549 NSCLC, 4.4 µM and 3.51 µM; in the experiment with MOLT-4 leukemia, 5.46 µM and 3.49 µM. The GI50 is 4.56 µM and 4.06 µM in the experiment with SK-OV-3 ovarian; 4.59 µM and 4.4 µM in the experiment with HCC-2998 colon; 6.86 µM and 5.42 µM in the experiment on OVCAR-5 ovarian; 3.43 µM and 4.29 µM in the experiment with CAKI-1 renal. Also, the concentration for total growth inhibition (TGI) in the experiment with NCI-H460 lung is 8.9 µM; in the experiment with IGROV1 ovarian, 11 µM and 15 µM; in the experiment on MALME-3M melanoma, 7.36 µM and 8.03 µM; in the experiment with SF-539 CNS, 7.83 µM and 7.12 µM; in the experiment with A549 NSCLC it was 10.5 µM and 8.75 µM; with MOLT-4 leukemia, 16.8 µM and 11.9 µM. Moreover, the TGI is 11.8 µM and 11.9 µM in the experiment on SK-OV-3 ovarian; 8.71 µM and 9.65 µM in the experiment with HCC-2998 colon; 23.1 µM and 17.2 µM with OVCAR-5 ovarian; 8.28 µM and 9.96 µM in the experiment on CAKI-1 renal.

For `Nc1cc(S(N)(=O)=O)ccc1SSc1ccc(S(N)(=O)=O)cc1N`, the concentration for total growth inhibition (TGI) with NCI-H460 lung, in the experiment on IGROV1 ovarian, in the experiment on MALME-3M melanoma, with SF-539 CNS, in the experiment with A549 NSCLC and in the experiment with MOLT-4 leukemia was above 100 µM each time. Besides, the total growth inhibition concentration (TGI) with SK-OV-3 ovarian, in the experiment with HCC-2998 colon, with OVCAR-5 ovarian and in the experiment with CAKI-1 renal was above 100 µM each time.

As for `CS(=O)(=O)N(CCC#N)c1ccc(C=O)cc1`, the TGI in the experiment with NCI-H460 lung, in the experiment on IGROV1 ovarian, with MALME-3M melanoma, with SF-539 CNS, in the experiment with A549 NSCLC and in the experiment with MOLT-4 leukemia was above 100 µM throughout. For the same compound, the TGI with SK-OV-3 ovarian, in the experiment on HCC-2998 colon, with OVCAR-5 ovarian and with CAKI-1 renal was above 100 µM throughout.

For the compound `Cc1cc(C)c(S(=O)(=O)N(CCc2cccc(Br)c2)Cc2ccc(-c3cccc(S(C)(=O)=O)c3)cc2)c(C)c1`, the GI50 in the experiment on NCI-H460 lung, in the experiment with IGROV1 ovarian, with MALME-3M melanoma, in the experiment on SF-539 CNS, with A549 NSCLC and in the experiment with MOLT-4 leukemia was above 100 µM throughout. Also, the GI50 in the experiment with SK-OV-3 ovarian, in the experiment with HCC-2998 colon, with OVCAR-5 ovarian and in the experiment with CAKI-1 renal was above 100 µM throughout. The concentration for total growth inhibition (TGI) in the experiment with NCI-H460 lung, in the experiment with IGROV1 ovarian, with MALME-3M melanoma, with SF-539 CNS, in the experiment on A549 NSCLC and with MOLT-4 leukemia was above 100 µM each time. Also, the total growth inhibition concentration (TGI) in the experiment with SK-OV-3 ovarian, in the experiment on HCC-2998 colon, in the experiment on OVCAR-5 ovarian and with CAKI-1 renal was above 100 µM each time.

As to `Clc1ccc(CNc2nccc(-c3cnn4ncccc34)n2)cc1`, the GI50 was 7.92 µM with NCI-H460 lung; 6.72 µM with IGROV1 ovarian; 8.94 µM with MALME-3M melanoma; 6.25 µM with SF-539 CNS; 7.66 µM with A549 NSCLC; 8.16 µM with MOLT-4 leukemia. Besides, the GI50 with SK-OV-3 ovarian is 11.8 µM; in the experiment on HCC-2998 colon it was 6.67 µM; in the experiment with OVCAR-5 ovarian it was 7.66 µM; with CAKI-1 renal, 5.62 µM. Besides, the TGI is above 25 µM in the experiment on NCI-H460 lung; above 23.3 µM in the experiment with IGROV1 ovarian; 23.3 µM in the experiment with MALME-3M melanoma; 15.6 µM with SF-539 CNS; above 25 µM in the experiment with A549 NSCLC; above 25 µM in the experiment with MOLT-4 leukemia. The concentration for total growth inhibition (TGI) in the experiment with SK-OV-3 ovarian is above 25 µM; with HCC-2998 colon, 18.4 µM; with OVCAR-5 ovarian, 24.7 µM; in the experiment on CAKI-1 renal, above 18.8 µM.

Consider `O=c1cccccc1[O-].O=c1cccccc1[O-].O=c1cccccc1[O-].[Ce+3]`, for which the concentration for total growth inhibition (TGI) in the experiment on NCI-H460 lung is above 100 µM; in the experiment with IGROV1 ovarian it was 88.4 µM; with MALME-3M melanoma, 52.4 µM; with SF-539 CNS, 58.8 µM; in the experiment with A549 NSCLC, above 100 µM; in the experiment on MOLT-4 leukemia, above 100 µM. Besides, the total growth inhibition concentration (TGI) in the experiment with SK-OV-3 ovarian was 72.3 µM; in the experiment with HCC-2998 colon it was above 100 µM; in the experiment on OVCAR-5 ovarian, above 100 µM; in the experiment with CAKI-1 renal, above 100 µM. The GI50 in the experiment on SF-539 CNS is 14.8 µM.

Consider `COC(=O)[C@H](C)NC(=O)[C@@H](OC)[C@@H]1Cc2cc3cc(OC4CC(OC5CC(O)C(O)C(C)O5)C(O)C(C)O4)c(C)c(O)c3c(O)c2C(=O)[C@H]1OC1CC(OC2CC(OC3CC(C)(O)C(O)C(C)O3)C(O)C(C)O2)C(O)C(C)O1` (some centres undefined), for which the GI50 is 0.0344 µM in the experiment on NCI-H460 lung; 0.05 µM in the experiment on IGROV1 ovarian; 0.0296 µM in the experiment on MALME-3M melanoma; 0.0478 µM in the experiment with SF-539 CNS; 0.195 µM in the experiment on A549 NSCLC; 0.232 µM with MOLT-4 leukemia. Also, the 50% growth inhibitory concentration (GI50) with SK-OV-3 ovarian was 0.359 µM; with HCC-2998 colon, 0.16 µM; in the experiment on OVCAR-5 ovarian, 0.158 µM; in the experiment on CAKI-1 renal, 0.129 µM. The concentration for total growth inhibition (TGI) in the experiment on NCI-H460 lung is above 50 µM; in the experiment on IGROV1 ovarian, above 50 µM; in the experiment with MALME-3M melanoma, 0.315 µM; in the experiment with SF-539 CNS it was 2.62 µM; with A549 NSCLC, above 50 µM; in the experiment on MOLT-4 leukemia it was 4.13 µM. Also, the TGI in the experiment on SK-OV-3 ovarian was above 50 µM; with HCC-2998 colon, 2.08 µM; with OVCAR-5 ovarian, above 50 µM; with CAKI-1 renal, 2.02 µM.

For the compound `CC(=O)[O-].[Zn].c1ccc(/C(=N\Nc2ccccn2)c2ccccn2)cc1`, the GI50 is 0.35 µM in the experiment with NCI-H460 lung, 1.43 µM in the experiment with SF-539 CNS, 0.447 µM in the experiment with A549 NSCLC and 0.507 µM in the experiment on SK-OV-3 ovarian. The TGI with NCI-H460 lung was 1.32 µM; in the experiment on IGROV1 ovarian, 0.272 µM; with MALME-3M melanoma, 1.58 µM; with SF-539 CNS it was 9.53 µM; in the experiment with A549 NSCLC, 5.48 µM; in the experiment on MOLT-4 leukemia, 0.227 µM. In addition, the TGI with SK-OV-3 ovarian was determined as 2.79 µM; with HCC-2998 colon it was 2.07 µM; with CAKI-1 renal, 6.33 µM.
